Laboratory results published in the supplement of paper PMC6045584.
± gives the standard deviation of the averaged measurements.

Key:
VISMODEGIB = compound: CS(=O)(=O)c1ccc(C(=O)Nc2ccc(Cl)c(-c3ccccn3)c2)c(Cl)c1 [VISMODEGIB]; assay: surviving fraction relative to DMSO-only wells; higher = less growth inhibition; conditions: exposure time: 5 days
Procedure, shortened: (§1)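 Viability was determined by CellTiter-Glo luminescence, expressed as surviving fraction normalised to the median of DMSO-only wells. The cells were log-phase tumour cell lines seeded at 250–500 per well in 384-well plates and, after 24 hours, exposed continuously for five days to inhibitors at 0.5, 1, 5, 10, 50, 100, 500 and 1000 nM. Three screens per line were run, keeping only lines with replicate Pearson r >0.7 and median Z' >0.3.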

RESVERATROL = compound: Oc1ccc(/C=C/c2cc(O)cc(O)c2)cc1 [RESVERATROL]; assay: as above; conditions: exposure time: 5 days
Procedure, shortened: as §1

Test System	surviving fraction (VISMODEGIB; 0.5 nM)	surviving fraction (VISMODEGIB; 1 nM)	surviving fraction (VISMODEGIB; 5 nM)	surviving fraction (VISMODEGIB; 10 nM)	surviving fraction (VISMODEGIB; 50 nM)	surviving fraction (VISMODEGIB; 100 nM)	surviving fraction (VISMODEGIB; 500 nM)	surviving fraction (VISMODEGIB; 1000 nM)	surviving fraction (RESVERATROL; 0.5 nM)	surviving fraction (RESVERATROL; 1 nM)	surviving fraction (RESVERATROL; 5 nM)	surviving fraction (RESVERATROL; 10 nM)	surviving fraction (RESVERATROL; 50 nM)	surviving fraction (RESVERATROL; 100 nM)	surviving fraction (RESVERATROL; 500 nM)	surviving fraction (RESVERATROL; 1000 nM)
HELA CERVIX	1 ± 0.046	1.05 ± 0.052	0.9757 ± 0.0083	1.02 ± 0.07	1.0558 ± 0.001	1.14 ± 0.041	1.04 ± 0.058	1.15 ± 0.019	1.04 ± 0.034	1.12 ± 0.036	1.06 ± 0.096	1.08 ± 0.023	1.09 ± 0.066	1.12 ± 0.037	1.12 ± 0.092	1.21 ± 0.066
HOS BONE	1 ± 0.013	1.01 ± 0.015	1.012 ± 0.0066	1.03 ± 0.026	0.991 ± 0.026	1.03 ± 0.05	1.01 ± 0.029	1.01 ± 0.079	1.016 ± 0.0053	1.05 ± 0.03	1.018 ± 0.009	1.02 ± 0.021	1.03 ± 0.012	1.06 ± 0.036	1.05 ± 0.024	1.07 ± 0.025
HOSMNG BONE	0.972 ± 0.12	0.993 ± 0.15	0.942 ± 0.095	0.906 ± 0.067	0.942 ± 0.15	0.991 ± 0.093	1.02 ± 0.23	1.05 ± 0.16	0.83 ± 0.15	0.872 ± 0.023	0.832 ± 0.1	0.722 ± 0.061	0.827 ± 0.11	0.877 ± 0.11	0.878 ± 0.072	0.924 ± 0.1
HSSYII SYNOVIAL	0.894 ± 0.023	0.931 ± 0.038	0.904 ± 0.078	0.906 ± 0.037	0.812 ± 0.027	0.831 ± 0.03	0.795 ± 0.026	0.771 ± 0.014	0.951 ± 0.067	1.01 ± 0.029	1.01 ± 0.015	0.995 ± 0.016	0.967 ± 0.04	0.971 ± 0.079	0.9 ± 0.03	0.917 ± 0.043
HT1080 SOFT TISSUE	1.021 ± 0.01	0.971 ± 0.028	1 ± 0.014	0.978 ± 0.03	0.968 ± 0.046	0.991 ± 0.048	0.962 ± 0.024	0.994 ± 0.06	1.03 ± 0.031	1.03 ± 0.019	0.995 ± 0.024	1.04 ± 0.033	0.984 ± 0.017	1.03 ± 0.03	1.05 ± 0.013	1.1 ± 0.015
HU09 BONE	1.03 ± 0.079	0.973 ± 0.088	1.07 ± 0.14	1.08 ± 0.17	0.913 ± 0.04	0.898 ± 0.066	0.802 ± 0.036	0.886 ± 0.08	0.972 ± 0.079	1.08 ± 0.1	1.13 ± 0.1	1.07 ± 0.077	1.11 ± 0.15	1.1 ± 0.079	1.05 ± 0.12	1.06 ± 0.038
HUO3N1 BONE	1.04 ± 0.04	0.976 ± 0.038	1.06 ± 0.061	1.03 ± 0.062	0.977 ± 0.025	0.962 ± 0.052	0.994 ± 0.03	0.901 ± 0.059	1.01 ± 0.036	1.07 ± 0.037	1.04 ± 0.034	1.06 ± 0.06	1.09 ± 0.035	1.1 ± 0.037	1.07 ± 0.029	1.01 ± 0.067
JIMT1 BREAST	0.906 ± 0.044	0.89 ± 0.016	0.9112 ± 0.0064	0.948 ± 0.041	0.849 ± 0.035	0.972 ± 0.021	0.881 ± 0.053	0.952 ± 0.057	1.03 ± 0.038	1.04 ± 0.042	1.05 ± 0.047	1.01 ± 0.029	1.01 ± 0.016	1.05 ± 0.027	1 ± 0.035	1.05 ± 0.021
